Experimental data as given in the supplement of paper PMC10307832.

Assays:
Experiment in all cases: relative viability (nuclei count vs DMSO), 5 days (fraction); higher = more cells survive
Dasatinib + Pictilisib = compound: Cc1nc(Nc2ncc(C(=O)Nc3c(C)cccc3Cl)s2)cc(N2CCN(CCO)CC2)n1 [Dasatinib] + CS(=O)(=O)N1CCN(Cc2cc3nc(-c4cccc5[nH]ncc45)nc(N4CCOCC4)c3s2)CC1 [Pictilisib] (partner 1 µM)
Outline: (§1)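 Relative viability was taken as the ratio of nuclei in treated wells to nuclei in vehicle wells. Lung cancer cell lines in 1536-well plates received compounds by pin tool one day after seeding, either one drug alone or a fixed anchor-drug dose plus five library-drug doses (not always all listed) in √10 steps. Nuclei were counted on 4× images after 5 days of treatment, and values are medians of duplicate plates.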

Dasatinib + Olaparib = compound: Cc1nc(Nc2ncc(C(=O)Nc3c(C)cccc3Cl)s2)cc(N2CCN(CCO)CC2)n1 [Dasatinib] + O=C(c1cc(Cc2n[nH]c(=O)c3ccccc23)ccc1F)N1CCN(C(=O)C2CC2)CC1 [Olaparib] (partner 8 µM)
Outline: as §1

XMD13-2 + Tozasertib = compound: C1CC1C(=O)NC2=NNC3=C2C=CC(=C3)C4=CC(=CC=C4)C(=O)NC5CC5 [XMD13-2] + Cc1cc(Nc2cc(N3CCN(C)CC3)nc(Sc3ccc(NC(=O)C4CC4)cc3)n2)n[nH]1 [Tozasertib] (partner 0.1 µM)
Outline: as §1

Dasatinib + Navitoclax = compound: Cc1nc(Nc2ncc(C(=O)Nc3c(C)cccc3Cl)s2)cc(N2CCN(CCO)CC2)n1 [Dasatinib] + CC1(C)CCC(c2ccc(Cl)cc2)=C(CN2CCN(c3ccc(C(=O)NS(=O)(=O)c4ccc(N[C@H](CCN5CCOCC5)CSc5ccccc5)c(S(=O)(=O)C(F)(F)F)c4)cc3)CC2)C1 [Navitoclax] (partner 0.5 µM)
Outline: as §1

## UMC-11
Dasatinib + Pictilisib; first compound 0.005 µM
  relative viability: 0.735
Dasatinib + Pictilisib; first compound 0.01581 µM
  relative viability: 0.64
Dasatinib + Pictilisib; first compound 0.05 µM
  relative viability: 0.49
Dasatinib + Pictilisib; first compound 0.1581 µM
  relative viability: 0.288
Dasatinib + Pictilisib; first compound 0.5 µM
  relative viability: 0.288
Dasatinib + Olaparib; first compound 0.005 µM
  relative viability: 0.542
Dasatinib + Olaparib; first compound 0.01581 µM
  relative viability: 0.377
Dasatinib + Olaparib; first compound 0.05 µM
  relative viability: 0.427
Dasatinib + Olaparib; first compound 0.1581 µM
  relative viability: 0.272
Dasatinib + Olaparib; first compound 0.5 µM
  relative viability: 0.247
XMD13-2 + Tozasertib; first compound 0.05 µM
  relative viability: 0.188
XMD13-2 + Tozasertib; first compound 0.1581 µM
  relative viability: 0.197
XMD13-2 + Tozasertib; first compound 0.5 µM
  relative viability: 0.197
XMD13-2 + Tozasertib; first compound 1.581 µM
  relative viability: 0.204
XMD13-2 + Tozasertib; first compound 5 µM
  relative viability: 0.192
Dasatinib + Navitoclax; first compound 0.005 µM
  relative viability: 0.308
Dasatinib + Navitoclax; first compound 0.01581 µM
  relative viability: 0.247
Dasatinib + Navitoclax; first compound 0.05 µM
  relative viability: 0.275
Dasatinib + Navitoclax; first compound 0.1581 µM
  relative viability: 0.246
Dasatinib + Navitoclax; first compound 0.5 µM
  relative viability: 0.241
